# Where “and” joins values, the source holds several entries; their conditions need not be identical. Equal values may be shown once.
# Assays:
# Test in all cases: PamChip tyrosine kinase microarray
# Assay type in all cases: biochemical
# Settings in all cases: 0.1 µM, HL60 lysate
# [1] = biological target: T1, Src (P12931) (Homo sapiens, UniProt P12931)
# T1 construct: purchased PamGene (PamChip PTK array, Upstream Kinase Analysis)
# How it was run: (§1)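 HL60 (AML) cell lysate was spiked with compound at 0.001, 0.01, 0.1, 1, 10 and 50 µM, or 2% v/v DMSO as control, then profiled in technical replicates on a tyrosine kinase peptide array of 196 phosphosites. Kinase activity was inferred from peptide-set changes using an upstream kinase tool.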
# [2] = biological target: T2, Lmr1 (Q6ZMQ8) (Homo sapiens, UniProt Q6ZMQ8)
# T2 construct: purchased PamGene (PamChip PTK array, Upstream Kinase Analysis)
# T2 sequence (Q6ZMQ8 1-1374): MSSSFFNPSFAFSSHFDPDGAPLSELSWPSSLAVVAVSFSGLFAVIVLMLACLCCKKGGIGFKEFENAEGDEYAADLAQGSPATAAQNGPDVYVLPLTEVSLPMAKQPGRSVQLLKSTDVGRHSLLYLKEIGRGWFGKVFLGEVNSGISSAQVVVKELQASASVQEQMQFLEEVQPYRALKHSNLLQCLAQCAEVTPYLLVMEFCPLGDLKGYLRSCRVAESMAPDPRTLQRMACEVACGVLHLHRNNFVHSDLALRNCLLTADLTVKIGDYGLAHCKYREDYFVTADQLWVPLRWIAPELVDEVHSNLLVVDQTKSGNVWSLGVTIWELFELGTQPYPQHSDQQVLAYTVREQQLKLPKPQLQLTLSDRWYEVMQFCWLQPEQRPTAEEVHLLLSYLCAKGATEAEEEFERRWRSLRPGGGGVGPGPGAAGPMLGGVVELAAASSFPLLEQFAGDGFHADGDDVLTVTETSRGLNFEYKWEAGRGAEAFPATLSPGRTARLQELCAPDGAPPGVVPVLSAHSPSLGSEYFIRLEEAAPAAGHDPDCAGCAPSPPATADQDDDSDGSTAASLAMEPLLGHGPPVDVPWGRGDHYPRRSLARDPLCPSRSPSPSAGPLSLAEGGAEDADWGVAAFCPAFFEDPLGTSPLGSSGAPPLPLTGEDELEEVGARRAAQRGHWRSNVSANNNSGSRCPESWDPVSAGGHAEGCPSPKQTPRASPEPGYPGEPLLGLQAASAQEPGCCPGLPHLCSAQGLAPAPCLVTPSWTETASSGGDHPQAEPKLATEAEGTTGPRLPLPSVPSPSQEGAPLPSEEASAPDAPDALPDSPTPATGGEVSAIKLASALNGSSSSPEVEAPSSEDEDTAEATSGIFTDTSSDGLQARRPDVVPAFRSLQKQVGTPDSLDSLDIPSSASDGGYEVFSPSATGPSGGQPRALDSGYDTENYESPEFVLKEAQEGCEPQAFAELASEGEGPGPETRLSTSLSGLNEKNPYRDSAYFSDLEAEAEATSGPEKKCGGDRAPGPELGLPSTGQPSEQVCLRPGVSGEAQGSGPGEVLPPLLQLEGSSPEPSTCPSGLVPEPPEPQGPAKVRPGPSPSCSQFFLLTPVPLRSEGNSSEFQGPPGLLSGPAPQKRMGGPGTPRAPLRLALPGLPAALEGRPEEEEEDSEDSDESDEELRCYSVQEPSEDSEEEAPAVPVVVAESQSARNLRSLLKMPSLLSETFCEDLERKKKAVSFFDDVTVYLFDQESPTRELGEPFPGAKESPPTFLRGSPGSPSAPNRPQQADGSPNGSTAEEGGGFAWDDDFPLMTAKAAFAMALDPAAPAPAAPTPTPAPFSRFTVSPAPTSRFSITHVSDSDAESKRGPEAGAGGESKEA
# How it was run: as §1
# [3] = biological target: T3, FGFR4 (P22455) (Homo sapiens, UniProt P22455)
# T3 construct: purchased PamGene (PamChip PTK array, Upstream Kinase Analysis)
# How it was run: as §1
# [4] = biological target: T4, JAK1~b (P23458) (Homo sapiens, UniProt P23458)
# T4 construct: JAK1~b (P23458); purchased PamGene (PamChip PTK array, Upstream Kinase Analysis)
# How it was run: as §1
# [5] = biological target: T5, Syk (P43405) (Homo sapiens, UniProt P43405)
# T5 construct: purchased PamGene (PamChip PTK array, Upstream Kinase Analysis)
# How it was run: as §1
# T4 sequence (P23458 whole entry): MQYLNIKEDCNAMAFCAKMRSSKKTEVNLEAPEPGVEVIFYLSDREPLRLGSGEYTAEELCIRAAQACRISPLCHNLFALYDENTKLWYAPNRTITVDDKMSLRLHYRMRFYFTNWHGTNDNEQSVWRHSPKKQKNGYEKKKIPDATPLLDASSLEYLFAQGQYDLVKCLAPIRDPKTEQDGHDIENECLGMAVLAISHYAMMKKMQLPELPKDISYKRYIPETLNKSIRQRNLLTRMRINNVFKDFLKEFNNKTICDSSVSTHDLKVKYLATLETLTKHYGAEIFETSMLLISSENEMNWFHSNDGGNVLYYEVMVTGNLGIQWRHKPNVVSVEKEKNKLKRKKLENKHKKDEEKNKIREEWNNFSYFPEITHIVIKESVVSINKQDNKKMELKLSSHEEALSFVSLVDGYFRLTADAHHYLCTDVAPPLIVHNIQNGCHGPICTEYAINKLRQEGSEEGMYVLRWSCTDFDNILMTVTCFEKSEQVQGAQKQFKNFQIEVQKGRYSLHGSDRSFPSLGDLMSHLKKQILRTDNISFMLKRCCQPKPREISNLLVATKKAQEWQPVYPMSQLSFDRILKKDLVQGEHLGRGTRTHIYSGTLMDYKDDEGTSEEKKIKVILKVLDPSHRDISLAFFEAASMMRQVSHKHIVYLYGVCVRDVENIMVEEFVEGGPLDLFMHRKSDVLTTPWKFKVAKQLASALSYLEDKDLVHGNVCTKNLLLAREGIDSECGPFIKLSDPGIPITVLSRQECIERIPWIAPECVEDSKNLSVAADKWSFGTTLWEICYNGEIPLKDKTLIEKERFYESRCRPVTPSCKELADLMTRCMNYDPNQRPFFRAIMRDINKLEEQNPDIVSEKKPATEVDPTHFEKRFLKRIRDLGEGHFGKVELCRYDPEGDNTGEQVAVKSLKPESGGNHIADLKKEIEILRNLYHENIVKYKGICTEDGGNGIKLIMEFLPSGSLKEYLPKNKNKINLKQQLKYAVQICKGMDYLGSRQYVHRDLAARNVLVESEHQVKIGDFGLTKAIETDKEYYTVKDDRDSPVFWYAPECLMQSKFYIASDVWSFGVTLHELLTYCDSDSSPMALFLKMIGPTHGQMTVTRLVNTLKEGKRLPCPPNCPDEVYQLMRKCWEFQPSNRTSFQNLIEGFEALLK
# T3 sequence (P22455 22-802): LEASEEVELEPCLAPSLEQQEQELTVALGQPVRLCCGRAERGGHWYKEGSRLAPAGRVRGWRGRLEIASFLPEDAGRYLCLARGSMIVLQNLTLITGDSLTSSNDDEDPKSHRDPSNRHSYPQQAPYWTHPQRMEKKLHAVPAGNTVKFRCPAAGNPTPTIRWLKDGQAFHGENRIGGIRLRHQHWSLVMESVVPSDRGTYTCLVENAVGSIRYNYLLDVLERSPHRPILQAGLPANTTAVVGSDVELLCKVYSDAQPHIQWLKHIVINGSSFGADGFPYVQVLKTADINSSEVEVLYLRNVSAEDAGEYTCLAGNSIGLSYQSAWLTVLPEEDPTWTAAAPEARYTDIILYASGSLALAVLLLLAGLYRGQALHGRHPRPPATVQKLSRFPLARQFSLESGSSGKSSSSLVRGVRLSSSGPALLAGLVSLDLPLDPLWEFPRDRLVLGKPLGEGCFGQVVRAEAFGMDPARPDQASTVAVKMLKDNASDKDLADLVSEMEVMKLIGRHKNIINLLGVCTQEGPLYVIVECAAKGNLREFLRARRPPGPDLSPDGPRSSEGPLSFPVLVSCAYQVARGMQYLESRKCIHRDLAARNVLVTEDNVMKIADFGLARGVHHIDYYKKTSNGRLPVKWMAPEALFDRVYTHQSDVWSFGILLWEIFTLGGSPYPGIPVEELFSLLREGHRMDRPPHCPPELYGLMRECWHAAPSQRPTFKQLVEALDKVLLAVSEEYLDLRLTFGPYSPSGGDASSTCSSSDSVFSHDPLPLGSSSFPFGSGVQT
# T1 sequence (P12931 whole entry): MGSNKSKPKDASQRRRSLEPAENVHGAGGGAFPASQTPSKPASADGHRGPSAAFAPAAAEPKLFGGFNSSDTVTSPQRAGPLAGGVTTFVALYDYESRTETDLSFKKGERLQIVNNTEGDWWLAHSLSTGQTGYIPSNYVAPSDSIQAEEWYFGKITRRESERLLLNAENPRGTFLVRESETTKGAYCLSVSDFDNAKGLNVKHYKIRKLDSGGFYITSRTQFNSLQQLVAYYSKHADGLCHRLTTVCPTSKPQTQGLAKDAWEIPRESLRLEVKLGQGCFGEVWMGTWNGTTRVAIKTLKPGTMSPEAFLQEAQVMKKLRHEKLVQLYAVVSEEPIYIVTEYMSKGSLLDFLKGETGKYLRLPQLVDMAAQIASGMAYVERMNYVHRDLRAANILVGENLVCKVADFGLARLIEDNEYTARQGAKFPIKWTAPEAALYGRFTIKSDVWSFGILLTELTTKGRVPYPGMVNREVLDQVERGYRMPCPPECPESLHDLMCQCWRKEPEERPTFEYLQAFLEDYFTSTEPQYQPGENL
smiles,measurement,setting,value
"COc1ccc(/C=C2\N=C(C)N(c3ccc(CC(=O)NCc4ccccc4)cc3)C2=O)cc1 [Compound 4c, (Z)-N-Benzyl-2-(4-(4-(4-methoxybenzylidene)-2-methyl-5-oxo-4,5-dihydro-1H-imidazol-1-yl)phenyl)acetamide]",Mean Significance Score,[1],2.048
same,Mean Specificity Score,[1],0.05941
same,Mean Final score (Kinase score),[1]; listed as KIM-161,2.16 and 2.164
same,Mean Final score (Kinase score),[2],2.52
same,Mean Kinase Statistic,[2],-1.33
same,Mean Significance Score,[2],1.989
same,Mean Specificity Score,[2],0.4793
same,Mean Significance Score,[3],2.023
same,Mean Specificity Score,[3],0.5516
same,Mean Final score (Kinase score),[3]; listed as KIM-161,2.73 and 2.7333
same,Mean Significance Score,[4],1.955
same,Mean Specificity Score,[4],1.609
same,Mean Final score (Kinase score),[4]; listed as KIM-161,3.51 and 3.514
same,Mean Final score (Kinase score),[5],2.113
same,Mean Kinase Statistic,[5],-1.091
same,Mean Significance Score,[5],2.048
same,Mean Specificity Score,[5],0.02997

# From PMC8766756, “Insights on Cancer Cell Inhibition, Subcellular Activities, and Kinase Profile of Phenylacetamides Pending 1H-Imidazol-5-One Variants” (Frontiers in Pharmacology, 2022)
